pIC50: −log10 of the molar value. Counter-ions that a name gives are not always drawn. Like-named read-outs stand apart in the source and are kept apart here.
Tests used:
[1] = test system: extracted mouse vas deferens preparation; assay: Opioid activity test using an extracted mouse vas deferens preparation (suppression of electrically induced contractions); design: species or system male ddy mouse; settings: electrical stimulus 0.1 Hz, 37° C.
Description: (§1) A male ddy mouse was used in this test. The vas deferens extracted from the animal was suspended in a Magnus tube filled with Krebes-Henseleit solution (NaCl 118 mM; KCl 4.7 mM; CaCl2 2.5 mM; KH2 PO4 1.1 mM; NaHCO3 25 mM; Glucose 11 mM) warmed to 37° C. and ventilated with 5% carbon dioxide and 95% oxygen. Electrical stimulus was performed at 0.1 Hz for 5.0 ms by means of ring-shaped platinum electrodes located above and below. Tissue contractions were recorded on a polygraph using an isometric transducer.
(§2) After adequately washing with nutrient solution and the contraction reaction stabilized, the μ agonist, naloxone, the δ agonist, NTI, or the κ agonist, norBNI, was added after which the test compound was again cumulatively added after roughly 20 minutes. The Ke value was calculated using the following calculation formula from the difference in the efficacies of both agonists.

δ receptor = biological target: T1, δ receptor (Mus musculus, UniProt P32300); design: species or system male ddy mouse; settings: mouse vas deferens, δ, NTI added
T1 construct: The vas deferens extracted from the animal was suspended in a Magnus tube; from tissue; host or cells: mouse (male ddy) vas deferens
T1 sequence (P32300 whole entry): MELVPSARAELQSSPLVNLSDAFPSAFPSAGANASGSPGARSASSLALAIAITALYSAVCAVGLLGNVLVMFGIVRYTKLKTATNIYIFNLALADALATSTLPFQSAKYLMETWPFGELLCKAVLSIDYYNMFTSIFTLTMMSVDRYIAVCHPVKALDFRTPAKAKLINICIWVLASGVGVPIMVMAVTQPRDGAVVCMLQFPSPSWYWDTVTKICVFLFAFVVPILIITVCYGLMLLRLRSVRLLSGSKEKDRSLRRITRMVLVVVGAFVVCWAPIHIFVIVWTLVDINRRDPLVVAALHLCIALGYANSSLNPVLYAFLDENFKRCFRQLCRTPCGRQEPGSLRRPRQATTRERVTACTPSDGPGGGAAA

κ receptor = biological target: T2, κ receptor (Mus musculus, UniProt P33534); assay: Opioid activity test using an extracted mouse vas deferens preparation, Ke with norBNI; design: species or system male ddy mouse; settings: for receptor selectivity of agonist (κ): in words; for Ke, norBNI: κ, norBNI added
T2 construct: from tissue; host or cells: mouse (male ddy) vas deferens
T2 sequence (P33534 whole entry): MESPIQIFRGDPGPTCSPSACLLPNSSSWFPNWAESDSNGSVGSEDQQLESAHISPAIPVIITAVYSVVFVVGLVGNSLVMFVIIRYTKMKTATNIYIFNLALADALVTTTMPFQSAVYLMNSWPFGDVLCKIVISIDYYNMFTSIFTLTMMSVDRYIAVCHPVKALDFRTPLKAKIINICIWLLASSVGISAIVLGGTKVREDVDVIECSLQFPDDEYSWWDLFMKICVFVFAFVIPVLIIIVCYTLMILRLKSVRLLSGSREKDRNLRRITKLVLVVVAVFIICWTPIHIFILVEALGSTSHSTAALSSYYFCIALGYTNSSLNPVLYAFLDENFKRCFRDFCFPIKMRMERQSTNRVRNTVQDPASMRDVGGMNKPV
Description: as §1, §2
Ke=[Conc. of added agonist]/(IC50 ratio-1)
IC50 ratio=IC50 in the presence of agonist/IC50 in the absence of agonist

[2] = test system: acetic acid-induced writhing in ddy mice; assay: animal or person; assay type: in vivo, 5 week old ddy mice; settings: for ED50: s.c. 15 minutes before acetic acid
Description: 5 week old ddy mice were used in this test. After intraperitoneal administration of 0.1 ml of 0.6% aqueous acetic acid per 10 g of body weight, the number of writhing reactions that occurred in 10 minutes starting 10 minutes after administration was evaluated for the indicator. The test drug was administered subcutaneously into the backs of the animals 15 minutes before administration of acetic acid.

[3] = Diuretic action (urine output for 5 hours after physiological saline loading in rats); assay type: in vivo, male Wistar rats; settings: for ED (200% urine output) / ED (500% urine output): Rattus norvegicus, sc, 5 hours after saline 20 ml/kg p.o.; for ED (200% urine output): dose giving urine output of 200 (non-dosed group = 100); for ED (500% urine output): dose giving urine output of 500 (non-dosed group = 100)
Description: 7-8 week old male Wistar rats were used in this test after prohibiting from drinking water for 1 hour before the start of testing. After discharging any urine accumulated in the bladder by gently stimulating the lower abdomens of the animals, the drug was administered subcutaneously. After 30 minutes, the animals were then forcibly given 20 ml/kg of physiological saline orally. The animals were placed in metabolic cages immediately after administration of the drug (2 animals/cage) and urine output for 5 hours after loading with physiological saline was measured. Drug efficacy was expressed in the form of those doses resulting in urine outputs of 200 and 500, respectively, when the urine output of a non-dosed group was taken to be 100. Those doses were expressed as the ED200 and ED500 values, respectively.

[4] = Mus musculus, sc, read-out: ED50

Row | SMILES | pIC50 [1] | Ke, NTI (δ receptor) | receptor selectivity of agonist (κ) (κ receptor) | Ke, norBNI (κ receptor) | ED50 [2, 4] | ED (200% urine output) [3] | ED (500% urine output) [3] | ED50 [2] | analgesic activity ([2]; s.c., in words) | Diuretic action (in words) ([3]; s.c., from ED200 values)
1 | CN(C(=O)/C=C/c1ccsc1)[C@H]1CC[C@@]2(O)[C@H]3Cc4ccc(O)c5c4[C@@]2(CCN3CC2CC2)[C@H]1O5 [Compound 91, 17-cyclopropylmethyl-3,14β-dihydroxy-4,5α-epoxy-6α-[N-methyl-trans-3-(3-thienyl)acrylamido]morphinan.cndot.tartrate] | 9.42 | 450 nM | selective agonists for κ receptors | 0.699 nM | 0.019 mg/kg | 0.0094 mg/kg | 0.96 mg/kg | – | – | –
2 | CN(C(=O)CC(=O)c1ccccc1)[C@H]1CC[C@@]2(O)[C@H]3Cc4ccc(O)c5c4[C@@]2(CCN3CC2CC2)[C@H]1O5 [Compound 98, 17-cyclopropylmethyl-3,14β-dihydroxy-4,5α-epoxy-6α-(N-methylbenzoylacetamido)morphinan.cndot.tartrate] | 8.89 | – | selective agonists for κ receptors | 1.35 nM | – | 0.0065 mg/kg | 0.206 mg/kg | 0.0068 mg/kg | – | –
3 | CN(C(=O)/C=C/c1cccc(F)c1)[C@@H]1CC[C@@]2(O)[C@H]3Cc4ccc(O)c5c4[C@@]2(CCN3CC2CC2)[C@H]1O5 [Compound 102, 17-cyclopropylmethyl-3,14β-dihydroxy-4,5α-epoxy-6β-(N-methyl-3-fluorocinnamamido)morphinan.cndot.tartrate] | 8.80 | 276 nM | selective agonists for κ receptors | 2.37 nM | 0.0019 mg/kg | 0.0014 mg/kg | 0.0154 mg/kg | – | – | –
4 | CN(C(=O)/C=C/c1ccco1)[C@@H]1CC[C@@]2(O)[C@H]3Cc4ccc(O)c5c4[C@@]2(CCN3CC2CC2)[C@H]1O5 [Compound 70, 17-cyclopropylmethyl-3,14β-dihydroxy-4,5α-epoxy-6β-[N-methyl-trans-3-(2-furyl)acrylamido]morphinan.cndot.hydrochloride] | 9.26 | – | selective agonists for κ receptors | 0.198 nM | 0.0016 mg/kg | – | – | – | – | –
5 | CN(C(=O)Cc1cccc([N+](=O)[O-])c1)[C@H]1CC[C@@]2(O)[C@H]3Cc4ccc(O)c5c4[C@@]2(CCN3CC2CC2)[C@H]1O5 [Compound 83, 17-Cyclopropylmethyl-3,14β-dihydroxy-4,5α-epoxy-6α-(N-methyl-3-nitrophenylacetamido)morphinan.cndot.hydrochloride] | – | – | – | – | 0.008 mg/kg | 0.0261 mg/kg | 2.99 mg/kg | – | – | –
6 | CN(C(=O)CC(=O)c1ccccc1)[C@@H]1CC[C@@]2(O)[C@H]3Cc4ccc(O)c5c4[C@@]2(CCN3CC2CC2)[C@H]1O5 [Compound 103, 17-cyclopropylmethyl-3,14β-dihydroxy-4,5α-epoxy-6β-(N-methylbenzoylacetamido)morphinan.cndot.tartrate] | 7.96 | – | selective agonists for κ receptors | 0.657 nM | 0.069 mg/kg | 0.0827 mg/kg | 5.65 mg/kg | – | – | –
7 | COc1cccc(C#CC(=O)N(C)[C@H]2CC[C@@]3(O)[C@H]4Cc5ccc(O)c6c5[C@@]3(CCN4CC3CC3)[C@H]2O6)c1.O=C(O)C(O)C(O)C(=O)O [Compound 184, 17-cyclopropylmethyl-3,14β-dihydroxy-4,5α-epoxy-6α-[N-methyl-3-(3-methoxyphenyl)propiolamido]morphinan tartrate] | – | – | – | – | 0.0043 mg/kg | 0.00444 mg/kg | 0.0326 mg/kg | – | – | –
8 | C/C=C/C=C/C(=O)N(C)[C@@H]1CC[C@@]2(O)[C@H]3Cc4ccc(O)c5c4[C@@]2(CCN3CC2CC2)[C@H]1O5 [Compound 178, 17-cyclopropylmethyl-3,14β-dihydroxy-4,5α-epoxy-6β-(N-methyl-trans,trans-2,4-hexadienoylamido)morphinan tartrate] | – | – | – | – | 0.0016 mg/kg | 0.00094 mg/kg | 0.0045 mg/kg | – | particularly strong analgesic activity | extremely strong diuretic action
9 | CCC/C=C/C(=O)N(C)[C@H]1CC[C@@]2(O)[C@H]3Cc4ccc(O)c5c4[C@@]2(CCN3CC2CC2)[C@H]1O5 [Compound 95, 17-cyclopropylmethyl-3,14β-dihydroxy-4,5α-epoxy-6α-(N-methyl-trans-2-hexenamido)morphinan.cndot.tartrate] | – | – | – | – | 0.0081 mg/kg | 0.0028 mg/kg | 0.0968 mg/kg | – | – | –
10 | CCCCCCC(=O)N(C)[C@H]1CC[C@@]2(O)[C@H]3Cc4ccc(O)c5c4[C@@]2(CCN3CC2CC2)[C@H]1O5 [Compound 46, 17-cyclopropylmethyl-3,14β-dihydroxy-4,5α-epoxy-6α-(N-methylheptanamido)morphinan.cndot.hydrochloride] | 8.98 | – | selective agonists for κ receptors | 0.440 nM | 0.013 mg/kg | – | – | – | – | –
11 | CN(C(=O)Cc1ccc(F)c(F)c1)[C@H]1CC[C@@]2(O)[C@H]3Cc4ccc(O)c5c4[C@@]2(CCN3CC2CC2)[C@H]1O5 [Compound 105, 17-cyclopropylmethyl-3,14β-dihydroxy-4,5α-epoxy-6α-(N-methyl-3,4-difluorophenylacetamido)morphinan.cndot.hydrochloride] | – | – | – | – | 0.098 mg/kg | 0.019 mg/kg | 3.3 mg/kg | – | – | –
12 | CN(C(=O)Cc1ccc(Br)cc1)[C@H]1CC[C@@]2(O)[C@H]3Cc4ccc(O)c5c4[C@@]2(CCN3CC2CC2)[C@H]1O5 [Compound 28, 17-cyclopropylmethyl-3,14β-dihydroxy-4,5α-epoxy-6α-(N-methyl-4-bromophenylacetamido)morphinan.cndot.hydrobromide] | – | – | – | – | 0.071 mg/kg | 0.02 mg/kg | 3.8 mg/kg | – | – | –
13 | CN(C(=O)c1ccc(Cl)c(Cl)c1)[C@H]1CC[C@@]2(O)[C@H]3Cc4ccc(O)c5c4[C@@]2(CCN3CC2CC2)[C@H]1O5 [Compound 27, 17-cyclopropylmethyl-3,14β-dihydroxy-4,5α-epoxy-6α-(N-methyl-3,4-dichlorobenzamido)morphinan.cndot.hydrochloride] | – | – | – | – | 0.046 mg/kg | 0.0248 mg/kg | 2.08 mg/kg | – | – | –
14 | CN(C(=O)/C=C/c1ccc(Br)cc1)[C@@H]1CC[C@@]2(O)[C@H]3Cc4ccc(O)c5c4[C@@]2(CCN3CC2CC2)[C@H]1O5 [Compound 156, 17-cyclopropylmethyl-3,14β-dihydroxy-4,5α-epoxy-6β-(N-methyl-4-bromocinnamamido)morphinan hydrobromide] | – | – | selective agonists for κ receptors | 0.091 nM | 0.0056 mg/kg | 0.00545 mg/kg | 0.355 mg/kg | – | – | –
15 | CCCCCC(=O)N(C)[C@@H]1CC[C@@]2(O)[C@H]3Cc4ccc(O)c5c4[C@@]2(CCN3CC2CC2)[C@H]1O5 [Compound 62, 17-cyclopropylmethyl-3,14β-dihydroxy-4,5α-epoxy-6β-(N-methylhexanamido)morphinan.cndot.tartrate] | 7.83 | 90.2 nM | selective agonists for κ receptors | 0.203 nM | 0.077 mg/kg | 0.101 mg/kg | 7.04 mg/kg | – | – | –
16 | CN(C(=O)CSc1ccccc1)[C@@H]1CC[C@@]2(O)[C@H]3Cc4ccc(O)c5c4[C@@]2(CCN3CC2CC2)[C@H]1O5 [Compound 65, 17-cyclopropylmethyl-3,14β-dihydroxy-4,5α-epoxy-6β-(N-methylthiophenoxyacetamido)morphinan.cndot.tartrate] | – | – | – | – | 0.15 mg/kg | 0.119 mg/kg | 5.31 mg/kg | – | – | –

— patent US6177438A, “Morphinan derivatives and pharmaceutical use thereof” (priority 1993, dated 2001)
